{
  "source": "paper PMC7614683",
  "about": "“A small molecule PI3Kα activator for cardioprotection and neuroregeneration” (Nature, 2023)",
  "key": {"PI3Kα-WT A549 cells": {"system": "PI3Kα-WT A549 cells", "experiment": "TIRF microscopy of PIP3 reporter, PI3Kα-WT A549", "assay_type": "cell-based, human", "conditions": "1938, then BYL719 0.5 μM", "procedure": "Phosphoinositide reporters used were GFP-PH-ARNO^I303Ex2 (PIP3 reporter[41]) and mCherry-cPH-TAPP1x3 (PI(3,4)P2 reporter[41]). TIRF microscopy allows selective imaging of the small cell volume, including the plasma membrane, directly adjacent to the coverslip onto which cells have been seeded. HeLa or A549 cells were seeded in Matrigel-coated (Corning #354230; diluted in Opti-MEM at 1:50) 8-well chamber slides (glass bottom, 1.55 refractive index; Thermo Fisher Scientific #155409) at a density of 5,000 cells/well. […]\nImage analyses of total reporter intensities were performed with the Fiji open source image analysis package. The region of interest (ROI) corresponding to the footprint of the individual cell across time points were defined using minimal intensity projection to select only pixels present across all time points, following prior subtraction of camera noise (rolling ball method, radius = 500 pixels) and xy drift correction, intensity levels over time were measured. […] All other quantifications were performed using the open source software R/RStudio. The values plotted in Fig. 3d (iii) represent mean±SEM, following signal scaling to minimum and maximum values of the normalised fluorescence intensity for each time point (Fn(t)). […]"}, "adult rat DRG neurons": {"system": "adult rat DRG neurons", "experiment": "Neurite outgrowth in dissociated adult rat dorsal root ganglion cultures", "assay_type": "cell-based", "conditions": "72h; BYL719 500 nM with 1938 above 10^-7 M", "text": "Dissociated adult rat dorsal root ganglion (DRG) cultures were used as an in vitro model for neuroregeneration[80],[81]. DRG neurons were isolated from adult male (>250g) Wistar rats as described, with DRGs from each rat cultured separately. Following culling via schedule 1 (rising concentration of CO2), the spinal column was removed and stored in PBS on ice. Cord tissue was removed to expose the DRGs and roots in the intervertebral foramen and the DRGs removed with forceps and scalpel under a dissecting microscope (Olympus SZ40). DRGs were manually cleaned by removal of roots, capsule and capillaries with forceps and then placed in DMEM supplemented with P/S. DRGs were treated with 0.125% collagenase type IV solution at 37°C for 90 min, and then mechanically dissociated by trituration using a 1 ml pipette. The collagenase solution was removed by 2 rounds of centrifugation in complete DMEM (DMEM with 1% P/S and 10% FBS) at 400 xg for 5 min, followed by resuspension of the DRG cell pellet in complete DMEM supplemented with 0.01 mM cytosine arabinoside. DRGs were plated in 75-cm[2] flasks coated with 0.1 mg/ml poly-D-lysine and incubated at 37°C, 5% CO2. […] 9 fields per well were captured and analysed using the CSIRO Neurite Analysis 2 […] in Columbus analysis software (Perkin Elmer). […]"}},
  "data": [
    {"smiles": "Cc1nc(NC(=O)N2CCC[C@H]2C(N)=O)sc1-c1ccnc(C(C)(C)C(F)(F)F)c1", "note": "[BYL719, reference compound]", "values": [
      {"measurement": "plasma membrane PIP3 (biosensor)", "setting": "PI3Kα-WT A549 cells", "result": "fully and acutely neutralized"},
      {"measurement": "neurite outgrowth (total length of neurites)", "setting": "adult rat DRG neurons", "result": "partially reduced the increase in neurite outgrowth"}
    ]}
  ]
}
